Assay results from patent publication US12559504B2, “Benzotriazole derivative” (UBE CORPORATION, priority 2019, dated 2026).

Columns and labels:
[1] = target: T1, GST fusion human Keap1 (amino acid residue: 325-624) protein (Homo sapiens, UniProt Q14145); test: Keap1-Nrf2 binding inhibition test (fluorescence polarization); settings: compound concentration of 100 nM; read-out: inhibition rate
T1 construct: GST fusion human Keap1 (amino acid residue: 325-624) protein; purchased Protein tech Ag0779
T1 sequence (Q14145 325-624): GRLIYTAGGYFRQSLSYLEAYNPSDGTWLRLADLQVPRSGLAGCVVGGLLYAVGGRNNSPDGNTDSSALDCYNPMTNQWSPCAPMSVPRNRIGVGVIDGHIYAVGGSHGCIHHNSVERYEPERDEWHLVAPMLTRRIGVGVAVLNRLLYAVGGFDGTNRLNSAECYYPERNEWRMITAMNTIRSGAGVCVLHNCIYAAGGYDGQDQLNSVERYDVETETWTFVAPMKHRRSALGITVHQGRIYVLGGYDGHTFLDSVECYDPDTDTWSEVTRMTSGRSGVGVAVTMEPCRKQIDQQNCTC
Method: The inhibitory activity of each test compound on the binding between Nrf2 and Keap1 was measured by the fluorescence polarization method. A solution consisting of 20 mM tris-hydrochloride pH7.5 (NIPPON GENE CO., LTD., REF: 318-90225), 150 mM NaCl [FUJIFILM Wako Pure Chemical. Corporation, REF: 191-01665], 0.05% Tween 20 (BioRAD, REF: 161-0781), and 5 mM DTT (FUJIFILM Wako Pure Chemical Corporation, REF: 049-08972) was used as a buffer solution. To a test compound solution (70 μL) adjusted to each concentration with 10% DMSO (FUJIFILM Wako Pure Chemical Corporation, REF: 043-07216) was added a buffer solution (350 μL) comprising 6 nM FITC-labeled Nrf2 peptide (FITC-Ahx-LDEETGEFL-NH2, Invitrogen) and 0.2 mg/mL of BSA (FUJIFILM Wako Pure Chemical Corporation, REF: 017-22231). Each 120 μL of the resulting mixture was dispensed into a black 96 well plate, and a buffer solution (80 μL) comprising 2.5 nM GST fusion human Keap1 (amino acid residue: 325-624) protein (Protein tech, REF: Ag0779) was added thereto. A Keap1-free buffer solution was added to some wells to prepare negative controls. Meanwhile, compound-free wells were used as positive controls. The plate was incubated at room temperature for 30 minutes, and each fluorescence polarization at excitation wavelength of 482 nm and fluorescence wavelength of 530 nm was measured by using a plate reader Clariostar (BMG Labtech). The fluorescence polarization of the negative control was set to be 100% inhibition, fluorescence polarization of the positive control was set to be 0% inhibition, and the inhibition rate of each test compound at 100 nM was calculated by using the following equation. Inhibition rate (%)=100−((Fluorescence polarization when test compound was added−Fluorescence polarization of negative control)/(Fluorescence polarization of positive control−Fluorescence polarization of negative control))×100

[2] = tested on: NQO1; test: NQO1 enzyme induction test (in vitro) in Hepa1c1c7 cells; type: cell-based; settings: Mus musculus, Hepa-1c1c7, 48 h, concentration to elevate the NQO1 activity by 1.5 times, about 48 hours, read-out: EC150
Method: Each NQO1 assay was carried out by modifying a known method (Anal Biochem 1998; 169: 328-, Methods Enzymol 2004; 382: 243-). Hepa1c1c7 cells (mouse hepatocyte line manufacture by DS Pharma Biomedical Co., Ltd., REF. No. 95090613) were cultured (5% CO2, 37° C.). The cells were cultured in MEMα (manufactured by FUJIFILM Wako Pure Chemical Corporation, REF. 135-15175) medium comprising 10% FBS (manufactured by GIBCO, REF. 10082) and […]/streptomycin/amphotericin B (manufactured by GIBCO, REF. 15240), and dispensed into a 96 well plate (manufactured by Costar, REF. 3610) at 2.0×10^3 cells/well. On the next day, test compound (final concentration of […]: 0.1%) dissolved into DMSO (manufactured by FUJIFILM Wako Pure Chemical Corporation, REF. 043-07216) was added to each well, and the plate was further cultured for about 48 hours.
A cell lysate manufactured by Cell signaling Technology, Inc. (REF. 9803) with the addition of a Protease Inhibitor manufactured by Roche Diagnostics K.K. (REF. 11-873580001) was used. A reaction solution (which is a solution comprising trishydrochloric acid (25 mM), albumin […], Tween-20 (0.01%), glucose-6-phosphate dehydrogenase (2 U/mL), flavin-adenine dinucleotide (5 μM), glucose-6-phosphate (1 μM), nicotinamide adenine dinucleotide phosphate (30 μM), 3-(4,5-dimethyl-2-thiazolyl)-2,5-diphenyltetrazolium bromide (MTT) (0.03%), and menadione (50 μM)), and a stop solution (which is a solution comprising dicumarol (0.3 mM) and potassium dihydrogen phosphate (5 mM), pH 7.4) were prepared. After the medium was removed, cell lysate (50 μL) was added thereto, and the resulting mixture was shaken at room temperature for 20 minutes. The reaction solution (200 μL) was added thereto, and the resulting mixture was left to stand at room temperature for 5 minutes. The stop solution (50 μL) was added thereto, and absorbance at 540 nm (reference 750 nm) was measured.
Cell number was measured by Cell Titer Glo assay (manufactured by Promega Corporation, REF. G9242) by using another plate prepared according to the same conditions as those described above, and correction of absorbance was carried out. The test result was analyzed by Excel, and the EC150 value which is the concentration to elevate the NQO1 activity by 1.5 times was calculated.

[3] = Metabolism test using human liver microsome fractions; type: in vitro ADME; settings: human liver microsomes, test compound 10 μmol/L, NADPH and UDP-glucuronic acid, 37° C.
Method: A reaction composition solution (comprising NADPH Regenerating System, Solution A (manufactured by Corning Inc., REF. 451220) (50 μL), NADPH Regenerating System, Solution B (manufactured by Corning Inc., REF. 451200) (10 μL), 250 mM UDP-glucuronic acid (40 μL), UGT Reaction Mix Solution B (manufactured by Corning Inc., REF. 451320) (200 μL), and distilled water (640 μL)) in which human liver microsomes (manufactured by Xenotech, Cat. No. H610) or monkey liver microsomes (manufactured by Xenotech, Cat. No. P2000) (corresponding to 1 mg of protein) were suspended was prepared. After the solution was incubated at 37° C. for 5 minutes, each test compound dissolved into DMSO (manufactured by FUJIFILM Wako Pure Chemical Corporation, Code No. 043-07216) was added to the solution so that the final concentration was set to be 10 μmol/L, and a reaction was initiated. After 0, 5, 10, 15, 20, and 30 minute(s) from the initiation of the metabolism reaction, 100 μL of the reaction solution was taken out of the reaction system, and added to 200 μL of acetonitrile to stop the reaction. After the reaction was completed, the reaction solution was subjected to a work-up such as deproteinization, and then subjected to an UV-HPLC analysis to carry out the following analysis.
The peak area of each test compound was calculated by LabSolution software (Shimadzu Corporation), and the residual ratio (%) at each culture time of test material was calculated by the following equation. Residual ratio (%)=Peak area at each culture time[…]Peak area at 0 (initial time)
Next, the residual amount (nmol/mg/mL) at each culture time of test material was calculated by the following equation. Residual amount (nmol/mg/mL)=Initial concentration of reaction solution (10 nmol/mg/mL)×residual ratio÷100
Finally, a graph in which the reaction time was plotted at horizontal axis and the residual amount was plotted at longitudinal axis was prepared on Excel, and the inclination was calculated as the elimination rate (pmol/min/mg-P) within the time range in which the graph was deemed linear.

[4] = tested on: NQO1; test: NQO1 expression induction test in mouse kidney (single administration); type: in vivo; settings: Mus musculus, po, 6 h, Dose 10 mg/kg, BALB/c mouse kidney, 6 hours after administration, ratio to control group
Method: Each test compound solution for administration was prepared by dissolving or suspending each test compound into a 0.5 w/v % aqueous solution of methylcellulose (0.5% MC) (manufactured by Wako Pure Chemical Industries, Ltd.).
Each prepared test compound was orally administered to a BALB/c mouse (female, provided by Charles River Laboratories Japan, Inc.). Non-treated group was used as a control group. After 6 hours from the administration, each mouse was anesthetized with isoflurane, and euthanized with bloodletting by incising a lower aorta. Immediately, the left kidney was excised, cut into small pieces, and then the cut kidney pieces were transferred to RNA later (Thermo Fisher Scientific).
Then, mRNA was extracted from the collected kidney pieces by using NucleoSpin (registered trademark) RNA Kit (Takara Bio Inc.), each concentration was quantified by FlexStation3 (Molecular Devices), and then the concentration was adjusted to a constant concentration. A reverse transcription synthesis of cDNA was carried out from the mRNA with the constant concentration by using PrimeScript™ RT reagent Kit with gDNA Eraser and PCR Thermal Cycler (Takara Bio Inc.). Then, in addition to the resulting cDNA, SYBR (registered trademark) Premix Ex Taq™ II and NQO1, GAPDH primer (Takara Bio Inc.) were used to carry out Real-time PCR by PCR Thermal Cycler Dice Real time (Takara Bio Inc.), and the NQO1 expression was quantified by using the GAPDH expression as the reference.
In order to evaluate the NQO1 expression induction in each group, the NQO1 expression induction ratio was calculated by using the following equation. (NQO1 expression induction ratio)=(Average NQO1 expression in test compound administered group)[…](Average NQO1 expression in control group)

Row | inhibition at 0.1 µM [1] [%] | Compound | EC (1.5-fold NQO1 activity) [2] [µM] | Human metabolic rate [3] | fold induction at 10 mg/kg [4]
1 | ≥ 50 | CC[C@@H]1CN(Cc2cc(C(c3ccc4c(nnn4C)c3C)C(C)(C)C(=O)O)ccc2C)Cc2cc3[nH]ncc3cc2O1 (stereo partly drawn) [Example 64-(b), 3-(1,4-dimethyl-1H-benzo[d][1,2,3)triazol-5-yl)-3-(3-(((R)-6-ethyl-1,6,7,9-tetrahydro-8H-(1,4]oxazepino[7,6-f]indazol-8-yl)methyl)-4-methylphenyl)-2,2-dimethylpropanoic Acid] | 0.005 to 0.05 | B (100≤metabolic rate<150 pmol/min/mg protein) | 
2 | ≥ 50 | CC[C@@H]1CN(Cc2cc(C(c3ccc4c(nnn4C)c3C)C3(C(=O)O)CCC3)ccc2C)Cc2cc3ncccc3cc2O1 (single isomer, unassigned) [Example 87] | 0.0005 to 0.005 | A (metabolic rate<100 pmol/min/mg protein) | 
3 | ≥ 50 | CC[C@@H]1CN(Cc2cc(C(c3ccc4c(nnn4C)c3C)C(C)(C)C(=O)O)ccc2C)Cc2cc3c(cc2O1)CCCC3 (single isomer, unassigned) [Example 33] |  | A (metabolic rate<100 pmol/min/mg protein) | 3 to 6
4 | ≥ 50 | CC[C@@H]1CN(Cc2cc(C(c3ccc4c(nnn4C)c3C)C(C)(C)C(=O)O)ccc2C)Cc2cc3c(cc2O1)OC(F)(F)O3 (single isomer, unassigned) [Example 29] |  | A (metabolic rate<100 pmol/min/mg protein) | > 6
5 | ≥ 50 | CC[C@@H]1CN(Cc2cc(C(c3ccc4c(nnn4C)c3C)C(C)(C)C(=O)O)ccc2C)Cc2ncc3ccccc3c2O1 (single isomer, unassigned) [Example 45] |  | A (metabolic rate<100 pmol/min/mg protein) | > 6
6 | ≥ 50 | CC[C@@H]1CN(Cc2cc(C(c3ccc4c(nnn4C)c3C)C(C)(C)C(=O)O)ccc2C)Cc2cc3c(cc2O1)CCC3 (single isomer, unassigned) [Example 31] |  | B (100≤metabolic rate<150 pmol/min/mg protein) | 3 to 6
7 |  | CC[C@@H]1CN(Cc2cc(C(c3ccc4c(nnn4C)c3C)C(C)(C)C(=O)O)ccc2C)Cc2c(ccc3c2CCCC3)O1 (stereo partly drawn) [Example 5-(b), 3-(1,4-dimethyl-1H-benzo[d][1,2,3)triazol-5-yl)-3-(3-(((R)-4-ethyl-3,4,8,9,10,11-hexahydronaphtho(1,2-f) (1,4]oxazepin-2(1H)-yl)methyl)-4-methylphenyl)-2,2-dimethylpropanoic Acid] | 0.05 to 0.5 |  | 
8 | ≥ 50 | CC[C@@H]1CN(Cc2cc(C(c3ccc4c(nnn4C)c3C)C(C)(C)C(=O)O)ccc2C)Cc2nc3ccccc3cc2O1 (single isomer, unassigned) [Example 37] |  | A (metabolic rate<100 pmol/min/mg protein) | > 6
9 | ≥ 50 | CC[C@@H]1CN(Cc2cc(C(c3ccc4c(nnn4C)c3C)C(C)(C)C(=O)O)ccc2C)Cc2cnc3ccccc3c2O1 (single isomer, unassigned) [Example 47] |  | B (100≤metabolic rate<150 pmol/min/mg protein) | > 6
10 | ≥ 50 | CC[C@@H]1CN(Cc2cc(C(c3ccc4c(nnn4C)c3C)C(C)(C)C(=O)O)ccc2C)Cc2cc3ncccc3cc2O1 (single isomer, unassigned) [Example 41] |  | A (metabolic rate<100 pmol/min/mg protein) | > 6
11 | ≥ 50 | CC[C@@H]1CN(Cc2cc(C(c3ccc4c(nnn4C)c3C)C(C)(C)C(=O)O)ccc2C)Cc2cc3cccnc3cc2O1 (single isomer, unassigned) [Example 39] |  | A (metabolic rate<100 pmol/min/mg protein) | 3 to 6
